Key:
MaC3'H-MaCPR2 = target: T1, MaC3'H-MaCPR2 (Morus alba, UniProt A0A5P9L9Q5); experiment: yeast feeding, product by HPLC and LC-MS; format: cell-based; conditions: 100 μM fed to yeast culture, 48 h, 30 °C; needs co-expressed MaCPR2
T1 construct: full ORFs of MaC3'H and MaCPR2 (715 aa) co-expressed from pESC-Trp (GAL1/GAL10) in Saccharomyces cerevisiae INVSc1; with NADPH--cytochrome P450 reductase
T1 sequence (A0A5P9L9Q5 1-509): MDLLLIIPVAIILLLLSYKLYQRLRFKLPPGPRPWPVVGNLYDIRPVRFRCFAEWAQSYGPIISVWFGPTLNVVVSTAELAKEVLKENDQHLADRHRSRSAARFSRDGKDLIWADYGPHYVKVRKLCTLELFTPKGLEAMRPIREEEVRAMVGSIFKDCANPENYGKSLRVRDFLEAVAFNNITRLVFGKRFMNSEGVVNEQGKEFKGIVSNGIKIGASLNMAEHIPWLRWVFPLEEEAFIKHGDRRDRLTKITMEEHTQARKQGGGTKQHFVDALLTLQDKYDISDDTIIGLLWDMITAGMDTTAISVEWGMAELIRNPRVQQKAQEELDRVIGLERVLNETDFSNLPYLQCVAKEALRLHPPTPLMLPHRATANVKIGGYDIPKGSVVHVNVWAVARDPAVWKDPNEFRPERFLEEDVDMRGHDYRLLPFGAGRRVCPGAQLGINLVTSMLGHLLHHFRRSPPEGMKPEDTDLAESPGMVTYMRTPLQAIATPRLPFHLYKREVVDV

[1] = system: NC(=O)C1=CN([C@@H]2O[C@H](COP(=O)(O)OP(=O)(O)OC[C@H]3O[C@@H](n4cnc5c(N)ncnc54)[C@H](OP(=O)(O)O)[C@@H]3O)[C@@H](O)[C@H]2O)C=CC1; experiment: purified protein; conditions: cytochrome c 200 μM, 50 mM Tris-HCl pH 7.4, 0.1 mM EDTA, 25 °C, varied: cofactor

Compound	yeast feeding, product by HPLC and LC-MS (MaC3'H-MaCPR2)	Km [1] [µmol/L]	Vmax [1] [µmol/min/mg]
O=C(/C=C/c1ccc(O)cc1)O[C@@H]1C[C@](O)(C(=O)O)C[C@@H](O)[C@H]1O [3-O-p-coumaroylquinic acid]	transfers electrons to MaC3'H hydroxylase, thus transforming 3-O-p-coumaroylquinic acid into chlorogenic acid		
O=C(/C=C/c1ccc(O)c(O)c1)O[C@@H]1C[C@](O)(C(=O)O)C[C@@H](O)[C@H]1O [chlorogenic acid]	expected product chlorogenic acid was detected in MaC3'H-MaCPR2/pESC-Trp/INVSCI engineered bacteria		
MaCPR2 (Morus alba)		13.93 ± 1.54	2.43

— article PMC10885410, “Mining and functional characterization of NADPH-cytochrome P450 reductases of the DNJ biosynthetic pathway in mulberry leaves” (BMC Plant Biology, 2024)
